Drawing on PubChem BioAssay AID1421 (Emory University Molecular Libraries Screening Center, 2008), this text covers PGE2 EC50 with compound and outcome for 91 compounds.

Values joined by “and” are separate entries in the source; they are usually repeats but may differ in a detail not shown here. Identical values can stand only once. Active and inactive are the calls of the source. The rule behind the calls is not given here.

The test addresses Prostaglandin E2 receptor EP2 subtype (Homo sapiens) (UniProt P43116). Put plainly: EP2 receptor modulators, dose response, cell-based, human EP2, PGE2 EC50 shift (AID 1421). The conditions noted are these: EP2-expressing cells, PGE2 EC50 shift by compound; for PGE2 EC50 with compound: measured here: PGE2 EC50 at 6.7 uM compound.

Prostaglandin E2 receptor EP2 subtype (Homo sapiens), sequence (P43116 whole entry, looked up): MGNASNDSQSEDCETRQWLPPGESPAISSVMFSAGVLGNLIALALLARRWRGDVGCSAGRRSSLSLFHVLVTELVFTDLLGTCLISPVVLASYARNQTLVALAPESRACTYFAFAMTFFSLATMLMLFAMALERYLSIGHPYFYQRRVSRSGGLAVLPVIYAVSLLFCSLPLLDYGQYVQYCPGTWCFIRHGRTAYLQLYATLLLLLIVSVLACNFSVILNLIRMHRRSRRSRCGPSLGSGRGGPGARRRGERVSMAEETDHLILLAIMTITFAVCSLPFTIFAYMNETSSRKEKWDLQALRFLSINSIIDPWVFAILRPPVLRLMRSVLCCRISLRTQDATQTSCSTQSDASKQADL

Consider `S=c1[nH]nc(C23CC4CC(CC(C4)C2)C3)n1Cc1ccco1`, for which the PGE2 EC50 with compound stood at 2.45 nM.

In the case of `O=C(CNC1CCCCC1)N1CCC2(CC1)OCCO2`, the PGE2 EC50 with compound is 1.35 nM.

`O=C(O)CCCN1C(=O)/C(=C\c2ccco2)SC1=S`: the PGE2 EC50 with compound came out at 1.07 nM.

In the case of `COC(=O)c1cc2ccsc2n1Cc1ccccc1F`, the PGE2 EC50 with compound was determined as 0.83 nM.

On to `CCOC(=O)C1CCCN(c2c(C(=O)c3ccccc3)cnc3ccc(OC)cc23)C1` (stereo unspecified), for which the PGE2 EC50 with compound is 1.15 nM.

Consider `C=CCSc1nc2ccccc2n1S(=O)(=O)c1ccc(C)cc1`, for which the PGE2 EC50 with compound came to 0.95 nM.

`Cn1c(CNc2ccc(F)cc2)nnc1SCC(=O)NNC(=O)Cc1ccccc1`: the PGE2 EC50 with compound amounted to 1.63 nM.

`COc1cc(C2Oc3cc(C4Oc5cc(O)cc(O)c5C(=O)C4O)ccc3OC2CO)ccc1O` (stereo unspecified): the PGE2 EC50 with compound is 1.15 nM.

For the compound `O=c1c2oc3ccccc3c2[nH]c(=S)n1-c1ccccc1`, the PGE2 EC50 with compound stood at 1.25 nM.

Turning to `CC1(C)C=Cc2c(c3c(c4c(=O)c(-c5ccc(O)cc5)coc24)OC(C)(C)CC3)O1`, the PGE2 EC50 with compound was 1.11 nM.

In the case of `Cc1ccc(CSc2ncnc3c2cnn3Cc2ccccc2)cc1C`, the outcome was active and the PGE2 EC50 with compound is 1.08 nM.

Take `Cc1cc(NC(=O)c2cc(-c3ccncc3)nc3c(C)cccc23)no1`: the PGE2 EC50 with compound is 1.16 nM.

In the case of `Cc1cc(C)c(S(=O)(=O)O)c(C)n1`, the PGE2 EC50 with compound was determined as 1.25 nM.

Take `Nc1c(C(=O)NCc2ccco2)c2nc3ccccc3nc2n1CCc1ccccc1`: the PGE2 EC50 with compound was determined as 1.78 nM.

For `Cc1cccc(/C=C/c2nc3ccccc3c(=O)n2Cc2ccccc2)c1`, the PGE2 EC50 with compound came out at 2.67 nM.

Consider `CCOC(=O)COc1cc(Br)c(/C=N/Nc2ccccc2)cc1OC`, for which the PGE2 EC50 with compound came to 2.69 nM.

On to `C[C@H](CCC(=O)O)[C@@H]1CC[C@@H]2[C@H]3CC[C@@H]4C[C@H](O)CC[C@@]4(C)[C@@H]3CC[C@]21C`, for which the PGE2 EC50 with compound was determined as 1.38 nM.

Take `CC1CCN(C(C)C(=O)Nc2ccccc2-c2ccccc2)CC1` (stereo unspecified): the PGE2 EC50 with compound stood at 1.27 nM.

As for `COc1ccc(-c2cc(C(F)(F)F)nc(NCc3ccco3)n2)cc1OC`, the PGE2 EC50 with compound worked out at 0.53 nM.

Take `O=C(Nc1ccccc1N1CCCCC1)c1cccc([N+](=O)[O-])c1`: the PGE2 EC50 with compound came out at 0.9 nM.

As to `CCOC(=O)/C(N=Nc1c(Br)cc(Br)cc1Br)=C(\C)O`, the PGE2 EC50 with compound is 0.84 nM.

On to `O=C(Nc1ccccc1-c1ccccc1)c1ccc(Br)o1`, for which the result was active and the PGE2 EC50 with compound was 1.27 nM.

Take `COc1cc(OC)c2c(OC)c(-c3ccc4c(c3)OCO4)c(=O)oc2c1`: the PGE2 EC50 with compound is 1.43 nM.

For the compound `O=C(O)NCc1ccccc1` (tested in a mixture with another compound), the PGE2 EC50 with compound came to 1.38 nM.

Turning to `CS(=O)(=O)N(Cc1ccccc1)c1ccccc1C(=O)Nc1ccccc1C(=O)NCc1ccco1`, the PGE2 EC50 with compound was found to be 3.04 nM.

In the case of `Cc1cccc(OCCCC(=O)N2CCCc3ccccc32)c1C`, the PGE2 EC50 with compound stood at 0.71 nM.

Turning to `Cc1ccc(-c2nnc(N3CCC(C)CC3)c3ccccc23)cc1`, the PGE2 EC50 with compound came out at 1.39 nM.

On to `COc1ccc(OC)c(C(=O)CSc2nnc(Cc3cccs3)n2CCc2ccccc2)c1`, for which the PGE2 EC50 with compound came to 1.33 nM.

Regarding `CCc1ccc(C2=Nn3c(nnc3-c3cccs3)SC2)cc1`, the PGE2 EC50 with compound was determined as 1.43 nM.

With `O=C(O)/C=C/C(O)c1ccc(Cl)cc1` (stereo unspecified), the PGE2 EC50 with compound turned out to be 0.97 nM.

As for `FC(F)(F)c1cccc(-c2cc3ccccc3nc2N2CCCC2)c1`, the PGE2 EC50 with compound was 1.36 nM.

For `CCSc1nc2ccccc2n1Cc1ccccc1F`, the PGE2 EC50 with compound amounted to 0.94 nM.

For the compound `Cc1ccc2nc(SCC(=O)NCc3ccco3)c(C)cc2c1`, the PGE2 EC50 with compound stood at 0.76 nM.

`O=C(Nc1ccccc1N1CCCCC1)c1cccc(F)c1`: the PGE2 EC50 with compound amounted to 0.95 nM.

Take `CC1=CC2C(CC1=O)C(C)=CCC2C(C)C` (stereo unspecified): the PGE2 EC50 with compound stood at 0.86 nM.

As for `CCn1c2ccccc2c2nc3ccccc3nc21`, the PGE2 EC50 with compound is 1.55 nM.

As to `C/C(CCC(C)C)=N\NC(=S)NCc1ccccc1`, the PGE2 EC50 with compound worked out at 0.88 nM.

Turning to `COc1ccc(N=Cc2cc(Cc3ccccc3Cl)cc([N+](=O)[O-])c2O)cc1OC`, the PGE2 EC50 with compound is 0.65 nM.

For `Cc1ccc(-c2nc(P(=O)(c3ccccc3)c3ccccc3)c(N3CCOCC3)o2)cc1`, the PGE2 EC50 with compound came out at 1.18 nM.

With `Cc1nc(NC(C)c2ccccc2)c2c3c(sc2n1)CCC3` (stereo unspecified), the PGE2 EC50 with compound stood at 0.78 nM.

Consider `O=c1c2ccccc2c(=O)n(Cc2ccccc2)n1Cc1ccccc1`, for which the PGE2 EC50 with compound was 1.16 nM.

As for `Cc1cc2cc3c(cc2nc1SCC(=O)OC(C)C)OCO3`, the PGE2 EC50 with compound is 0.8 nM.

`CCOC(=O)c1c(-c2ccc(C)cc2)csc1NC(=O)CCN1CCOCC1`: the PGE2 EC50 with compound was 1.21 nM.

As for `Cc1cc([N+](=O)[O-])c(C)c(Br)c1C`, the PGE2 EC50 with compound was 1.11 nM.

Regarding `COc1nc(-c2ccccc2)nnc1-c1ccccc1`, the outcome was active and the PGE2 EC50 with compound was 1.05 nM.

With `COC(=O)c1c(NC(NC(=O)C(C)C)C(Cl)(Cl)Cl)sc2c1CCCC2` (stereo unspecified), the PGE2 EC50 with compound was determined as 1 nM.

Regarding `COc1ccc(OC)c(/C=C/C(=O)N2CCCc3ccccc32)c1`, the PGE2 EC50 with compound is 1.13 nM.

In the case of `Cc1ccccc1NC(=O)CSc1nc(COc2ccccc2)nc2ccccc12`, the PGE2 EC50 with compound was found to be 1.24 nM.

As to `O=S(=O)(O)c1ccc2c(N=Nc3c(O)ccc4ccccc34)cccc2c1`, the PGE2 EC50 with compound amounted to 1.28 nM.

`OC(COc1ccccc1)Cn1c2ccccc2c2ccccc21` (stereo unspecified): the outcome was active and the PGE2 EC50 with compound was found to be 1.4 nM.

Consider `COC(=O)c1nc(NC(=O)C(C)(C)C)n[nH]1`, for which the PGE2 EC50 with compound came to 2.41 nM.

Regarding `COCC(=O)Nc1sc2c(c1C(=O)OC)CCC(C)C2` (stereo unspecified), the PGE2 EC50 with compound was determined as 1.32 nM.

Turning to `COC(=O)c1ccccc1NC(=O)c1cnn2c(C(F)F)cc(C3CC3)nc12`, the PGE2 EC50 with compound was 1.17 nM.

`COc1cccc2[nH]c3c(N4CCCC(C)C4)ncnc3c12` (stereo unspecified): the PGE2 EC50 with compound amounted to 23.2 nM.

Regarding `CCc1oc2ccccc2c1C(=O)c1cc(Br)c(O)c(Br)c1`, the PGE2 EC50 with compound is 1.02 nM and 0.68 nM.

`Cc1noc(C)c1CSc1ncnc2sc3c(c12)CCC(C)C3` (stereo unspecified): the PGE2 EC50 with compound came out at 1.06 nM.

Take `Cc1ccc(CN2C(=O)/C(=C\c3ccc(C(=O)NCc4cccnc4)cc3)Oc3ccccc32)cc1`: the PGE2 EC50 with compound stood at 0.95 nM.

With `Cc1cc(C)c(C)c(Cn2c(CO)nc3ccccc32)c1C`, the PGE2 EC50 with compound stood at 0.6 nM.

Take `Cc1oc(-c2ccccc2)cc1C(=O)Nc1cccc(/C=C/C(=O)O)c1`: the PGE2 EC50 with compound was 2.37 nM.

For `CC(=O)C1CC[C@H]2C3CC[C@H]4C[C@H](O)CC[C@]4(C)C3CC[C@]12C` (stereo partly specified), the PGE2 EC50 with compound came to 0.89 nM.

As to `c1ccc(-c2noc(CN3CCN(C(c4ccccc4)c4ccccc4)CC3)n2)cc1`, the PGE2 EC50 with compound is 0.73 nM.

`CN(C)c1nccc(N(Cc2ccccc2)Cc2ccccc2)c1C#N`: the PGE2 EC50 with compound is 1.16 nM.

For the compound `CCCc1nc(SC2CCCC2)c2c(=O)n(C)c(=O)n(C)c2n1`, the PGE2 EC50 with compound worked out at 0.75 nM.

Regarding `Nc1ccc(Br)cc1C(=O)c1ccccc1`, the PGE2 EC50 with compound stood at 0.43 nM.

Consider `CC1(c2ccccc2)CC(C)(C)N(C(=O)C2CCCO2)c2ccccc21` (stereo unspecified), for which the PGE2 EC50 with compound worked out at 0.9 nM.

As for `CCCCC(=O)Nc1sc2c(c1C(=O)OCC)CCC(C=O)=C2Cl`, the PGE2 EC50 with compound came out at 0.91 nM.

Take `CCOC(=O)C1=NN(c2ccc(C)cc2)C2(S1)SC(C(C)=O)=C(C)N2c1ccccc1` (stereo unspecified): the PGE2 EC50 with compound amounted to 0.31 nM.

In the case of `S=c1[nH]nc(-c2ccc(Br)o2)n1Cc1ccccc1`, the PGE2 EC50 with compound was 1.34 nM.

Take `CCC(C)(C)c1ccc(OCC(=O)N(C)C)c(C(C)(C)CC)c1`: the PGE2 EC50 with compound came to 5.61 nM.

On to `Cc1ccc2nc(N3CCC(C(=O)O)CC3)nc(-c3ccccc3)c2c1`, for which the PGE2 EC50 with compound worked out at 1.19 nM.

On to `Cn1c(=O)[nH]c(=O)c2c1nc(CN1CCN(c3cccc(Cl)c3)CC1)n2Cc1ccccc1Cl`, for which the PGE2 EC50 with compound was found to be 0.94 nM.

Turning to `N#Cc1c(-c2ccco2)nc(SCc2ccc(F)cc2)[nH]c1=O`, the PGE2 EC50 with compound came to 2.86 nM.

As for `COc1ccc(C(=O)Nc2cc(C)nn2-c2nc3ccccc3[nH]2)c(OC)c1`, the PGE2 EC50 with compound stood at 0.91 nM.

In the case of `CCOC(=O)c1c(-c2cccs2)csc1NC(=O)CN1CCOCC1`, the PGE2 EC50 with compound worked out at 0.99 nM.

`Cc1ccc(Oc2nc(-c3ccccc3)ncc2S(C)(=O)=O)cc1`: the PGE2 EC50 with compound amounted to 1.12 nM.

Take `COCCNC(=O)C(c1ccc(F)cc1)N(CC1CCCO1)C(=O)CCC(=O)Nc1ccccn1` (stereo unspecified): the PGE2 EC50 with compound came out at 2.09 nM.

With `O=C(Nc1ccccc1N1CCCCC1)c1ccc2nccnc2c1`, the PGE2 EC50 with compound was determined as 1.35 nM.

For the compound `Cc1cc(C)c2cc(C)c(SCC(=O)NCc3ccco3)nc2c1`, the PGE2 EC50 with compound was determined as 1.03 nM.

As for `C(=N\N1CCN(C2c3ccccc3-c3ccccc32)CC1)/c1cccnc1`, the PGE2 EC50 with compound came out at 1.54 nM.

Turning to `Cc1nn2c(c1-c1ccccc1)N=C(c1ccco1)CC2c1ccccc1` (stereo unspecified), the outcome was active and the PGE2 EC50 with compound turned out to be 0.8 nM.

Take `Cc1ccc(C(=O)OCC(=O)Nc2ccccc2Sc2ccccc2)cc1C`: the PGE2 EC50 with compound came to 0.85 nM.

On to `Cc1cccnc1N(C(=O)Nc1ccccc1)C1=NCC(C)(C)S1`, for which the PGE2 EC50 with compound is 0.57 nM.

In the case of `CCOC(=O)c1c(C2CC2)csc1NC(=O)CSCc1c(C)noc1C`, the PGE2 EC50 with compound is 1.25 nM.

In the case of `Cc1cccc(NC(=O)CSc2ncnc3c2oc2ccccc23)c1`, the PGE2 EC50 with compound stood at 2.85 nM.

For the compound `C#CCn1c(S(=O)(=O)Cc2ccccc2Cl)nc(-c2ccccc2)c1-c1ccccc1`, the PGE2 EC50 with compound was 2.66 nM.

On to `CCCCOC(=O)CSc1nc(N)c(C#N)c(-c2ccc(OCC)cc2)c1C#N`, for which the PGE2 EC50 with compound is 1.39 nM.

For the compound `C=CCC(NCc1ccccc1)c1ccc(Cl)cc1` (stereo unspecified), the PGE2 EC50 with compound came to 1.14 nM.

With `O=C(CSCc1cccc(Cl)c1)Nc1ccccc1-c1ccccc1`, the PGE2 EC50 with compound worked out at 0.74 nM.

As to `CCCCOC(=O)n1c(=S)oc2cc(Cl)ccc21`, the PGE2 EC50 with compound was 0.85 nM.

With `O=C(CNCC1CCCCC1)Nc1ccccc1N1CCCCC1`, the PGE2 EC50 with compound amounted to 0.81 nM.

Take `COC(=O)c1cc2occc2n1Cc1cccc(C)c1`: the PGE2 EC50 with compound was determined as 0.79 nM.
